Assay results taken from patent US20030092760A1, “Therapeutic agent for renal failure” (Toray Industries, Inc., priority 2001, published 2003).

Tests used:
[1] = tested on: glomerulonephritis model rats in renal failure stage; test: Glomerulonephritis model rats, renal failure stage, oral administration; conditions: for Increase in urinal total protein excretion (in words): renal failure stage, two weeks through four weeks after induction
Protocol: (§1) Eight-week-old male WKY rats (Charles River Japan Inc.) were administered intravenously with rabbit anti-rat glomerular basement membrane antiserum to induce glomerulonephritis. […] The frequency of the administration was twice a day for beraprost sodium and captopril and once a day for prednisolone. After the initial administration of a drug, urinary total protein excretion (which is a measure of renal functions) was determined.

[2] = tested on: glomerulonephritis model rats in inflammatory stage; test: Glomerulonephritis model rats, inflammatory stage, oral administration; conditions: for Urinary total protein excretion: 7 days after induction (1 week after initial administration); for Increase in urinal total protein excretion (in words): day 1 through day 7 after induction
Protocol: as §1

[3] = tested on: renal failure rat models of which the primary disease is glomerulonephritis; test: Renal failure rat models of which the primary disease is glomerulonephritis, subcutaneous osmotic pump; type: in vivo, WKY rats
Text: Renal failure rat models of which the primary disease was glomerulonephritis were used to examine the effect of different 4,8-inter-m-phenylene prostaglandin I2 derivatives including beraprost sodium on the models. […] Two weeks after the induction, blood was collected from each rat through the tail vein to determine blood creatinine and BUN levels. […] Four types of 4,8-inter-m-phenylene prostaglandin I2 derivatives in total, including beraprost sodium, were individually administered subcutaneously to the rats from the back continuously with an osmotic pump (ALZET) for one week, beginning two weeks after induction of glomerulonephritis and continued through three weeks after the induction. The renal functions (i.e., blood creatinine and BUN levels) were determined one week after the initial administration of a drug.

[4] = tested on: ⅚ nephrectomized rat model; test: ⅚ nephrectomized rat model: observation of renal tissue images (histopathological change); type: in vivo, Wistar rats; conditions: for Framework: Infiltration of mononuclear cells / Renal corpuscle: Cellular filling in glomerulus / Renal corpuscle: Coagulation of glomeruli in Bowman's capsule / Renal corpuscle: Deposition of PAS + materials in Bowman's capsule / Renal corpuscle: Epidermal growth in Bowman's capsule / Renal corpuscle: Glomerular hypertrophy / Renal corpuscle: Glomerulosclerosis / Uriniferous tuble: Basophilic degeneration of tubules / Uriniferous tuble: Proliferation of proximal tubules / Uriniferous tuble: Proteinaceous urinary casts / Uriniferous tuble: Tubular dilation: number of animals with change in 8 animals per group, five weeks after initial administration
Protocol: The effect of beraprost sodium on a ⅚ nephrectomized rat model, which has been widely used as a model animal for renal failure, was examined. Two-thirds of the left kidney was removed from each of 4-week-old male Wistar rats (Charles River Japan Inc.) with a razor, and all of the right kidney was then removed therefrom one week after. Three weeks after the initial surgery, blood was collected from each rat through the tail vein and serum creatinine and BUN levels were determined from the blood. At this point of time, the urine was also collected for 24 hours to determine the mass of proteins in the urine. The rats were allocated to one of the treatment groups by the stratifying continuous randomization method based on the mass of proteins in the urine and the body weight (n=8 per group). There was observed little difference in the initial values of blood creatinine and BUN values among the rats. Three weeks after the initial surgery, beraprost sodium or captopril (SIGMA, i.e., a positive control) was orally administered to each rat twice a day everyday, beginning the day on which administration of a drug was started and continued through five weeks after the administration. The determination of the renal functions was performed both three weeks and five weeks after the initial administration of a drug. The photographic images of the renal tissue were observed only five weeks after the initial administration. […] Five weeks after the initial administration, more exacerbation of chronic renal failure was observed. […] The same tendency was shown five weeks after the initial administration (Table 2).

[5] = tested on: ⅚ nephrectomized rat model; test: Effect on ⅚ nephrectomized rat model: renal functions; type: in vivo, Wistar rats
Protocol: The effect of beraprost sodium on a ⅚ nephrectomized rat model, which has been widely used as a model animal for renal failure, was examined. Two-thirds of the left kidney was removed from each of 4-week-old male Wistar rats (Charles River Japan Inc.) with a razor, and all of the right kidney was then removed therefrom one week after. Three weeks after the initial surgery, blood was collected from each rat through the tail vein and serum creatinine and BUN levels were determined from the blood. At this point of time, the urine was also collected for 24 hours to determine the mass of proteins in the urine. The rats were allocated to one of the treatment groups by the stratifying continuous randomization method based on the mass of proteins in the urine and the body weight (n=8 per group). […] Three weeks after the initial surgery, beraprost sodium or captopril (SIGMA, i.e., a positive control) was orally administered to each rat twice a day everyday, beginning the day on which administration of a drug was started and continued through five weeks after the administration. The determination of the renal functions was performed both three weeks and five weeks after the initial administration of a drug. The photographic images of the renal tissue were observed only five weeks after the initial administration.

[6] = Table 5, 60 μg/kg group, 2 weeks after induction (before administration)
[7] = Table 5, 60 μg/kg s.c. osmotic pump, 3 weeks after induction (1 week after the initial administration)
[8] = 50 mg/kg oral twice a day, five weeks after the administration of a drug
[9] = 50 mg/kg oral twice a day, three weeks after the administration of a drug
[10] = 100 μg/kg oral twice a day, five weeks after the administration of a drug
[11] = 100 μg/kg oral twice a day, three weeks after the administration of a drug
[12] = 300 μg/kg oral twice a day, five weeks after the administration of a drug
[13] = 300 μg/kg oral twice a day, three weeks after the administration of a drug
[14] = 60 μg/kg group, 2 weeks after induction (before administration)
[15] = 60 μg/kg s.c. osmotic pump, 3 weeks after induction (1 week after the initial administration)
[16] = 200 μg/kg group, 2 weeks after induction (before administration)
[17] = 200 μg/kg s.c. osmotic pump, 3 weeks after induction (1 week after the initial administration)

## C[C@]12C=CC(=O)C=C1CC[C@@H]1[C@@H]2[C@@H](O)C[C@@]2(C)[C@H]1CC[C@]2(O)C(=O)CO [Prednisolone, prednisolone]
[1]; 2 mg/kg group, renal failure stage Exp. 1, 2 weeks after induction (before administration)
  Urinary total protein excretion: 368 ± 20 mg/24 hr
[1]; 2 mg/kg oral once a day, renal failure stage Exp. 1, 3 weeks after induction (1 week after initial administration)
  Urinary total protein excretion: 456 ± 78 mg/24 hr
[1]
  Increase in urinal total protein excretion (in words): no effective prevention
[2]; 2 mg/kg oral once a day
  Urinary total protein excretion: 38 ± 8 mg/24 hr
[2]
  Increase in urinal total protein excretion (in words): effective prevention

## O=C([O-])/C=C/Cc1cccc2c1OC1CC(O)C(/C=C/C(O)c3ccccc3)C21.[Na+] (centres unmarked) [Compound 2]
[3]; [6]
  BUN: 28 ± 2 mg/dL
  Blood creatinine: 0.45 ± 0.04 mg/dL
[3]; [7]
  BUN: 31 ± 3 mg/dL
  Blood creatinine: 0.44 ± 0.05 mg/dL

## O=C([O-])CCCc1cccc2c1OC1CC(O)C(C#CC(O)C3CCCCC3)C21.[Na+] (centres unmarked) [Compound 1]
[3]; [6]
  BUN: 29 ± 2 mg/dL
  Blood creatinine: 0.44 ± 0.05 mg/dL
[3]; [7]
  BUN: 27 ± 2 mg/dL
  Blood creatinine: 0.41 ± 0.02 mg/dL

## C[C@H](CS)C(=O)N1CCC[C@H]1C(=O)O [Captopril, captopril, reference compound]
[1]; 50 mg/kg group, renal failure stage Exp. 2, 2 weeks after induction (before administration)
  Urinary total protein excretion: 318 ± 22 mg/24 hr
[1]; 50 mg/kg oral twice a day, renal failure stage Exp. 2, 4 weeks after induction (2 week after initial administration)
  Urinary total protein excretion: 504 ± 51 mg/24 hr
[1]; 100 mg/kg group, renal failure stage Exp. 2, 2 weeks after induction (before administration)
  Urinary total protein excretion: 325 ± 6 mg/24 hr
[1]; 100 mg/kg oral twice a day, renal failure stage Exp. 2, 4 weeks after induction (2 week after initial administration)
  Urinary total protein excretion: 517 ± 33 mg/24 hr
[1]
  Increase in urinal total protein excretion (in words): no effective prevention
[4]; 50 μg/kg
  Framework: Infiltration of mononuclear cells: 7
  Renal corpuscle: Cellular filling in glomerulus: 4
  Renal corpuscle: Coagulation of glomeruli in Bowman's capsule: 2
  Renal corpuscle: Deposition of PAS + materials in Bowman's capsule: 1
  Renal corpuscle: Epidermal growth in Bowman's capsule: 2
  Renal corpuscle: Glomerular hypertrophy: 1
  Renal corpuscle: Glomerulosclerosis: 2
  Uriniferous tuble: Basophilic degeneration of tubules: 6
  Uriniferous tuble: Proliferation of proximal tubules: 8
  Uriniferous tuble: Proteinaceous urinary casts: 4
  Uriniferous tuble: Tubular dilation: 8
[5]; [8]
  Blood urea nitrogen: 47.8 ± 5.2 mg/dL
  Urinary protein excretion: 255.5 ± 76.6 mg/24 hr/kgBW
[5]; [9]
  Blood urea nitrogen: 51.4 ± 3.7 mg/dL
  Urinary protein excretion: 136.8 ± 29.9 mg/24 hr/kgBW
[2]; 50 mg/kg oral twice a day
  Urinary total protein excretion: 75 ± 14 mg/24 hr
[2]
  Increase in urinal total protein excretion (in words): effective prevention

## CC#CCC(C)[C@H](O)/C=C/C1[C@H](O)C[C@@H]2Oc3c(CCCC(=O)[O-])cccc3[C@H]12.[Na+] (mixture of isomers) [Beraprost sodium, beraprost sodium]
[1]; 300 μg/kg group, renal failure stage Exp. 1, 2 weeks after induction (before administration)
  Urinary total protein excretion: 374 ± 21 mg/24 hr
[1]; 300 μg/kg group, renal failure stage Exp. 2, 2 weeks after induction (before administration)
  Urinary total protein excretion: 321 ± 23 mg/24 hr
[1]; 300 μg/kg oral twice a day, renal failure stage Exp. 1, 3 weeks after induction (1 week after initial administration)
  Urinary total protein excretion: 300 ± 51 mg/24 hr
[1]; 300 μg/kg oral twice a day, renal failure stage Exp. 2, 4 weeks after induction (2 week after initial administration)
  Urinary total protein excretion: 295 ± 46 mg/24 hr
[1]
  Increase in urinal total protein excretion (in words): markedly prevented
[4]; 100 μg/kg
  Framework: Infiltration of mononuclear cells: 7
  Renal corpuscle: Cellular filling in glomerulus: 7
  Renal corpuscle: Coagulation of glomeruli in Bowman's capsule: 2
  Renal corpuscle: Deposition of PAS + materials in Bowman's capsule: 2
  Renal corpuscle: Epidermal growth in Bowman's capsule: 1
  Renal corpuscle: Glomerular hypertrophy: 3
  Renal corpuscle: Glomerulosclerosis: 2
  Uriniferous tuble: Basophilic degeneration of tubules: 8
  Uriniferous tuble: Proliferation of proximal tubules: 8
  Uriniferous tuble: Proteinaceous urinary casts: 5
  Uriniferous tuble: Tubular dilation: 8
[4]; 300 μg/kg
  Framework: Infiltration of mononuclear cells: 7
  Renal corpuscle: Cellular filling in glomerulus: 4
  Renal corpuscle: Coagulation of glomeruli in Bowman's capsule: 1
  Renal corpuscle: Deposition of PAS + materials in Bowman's capsule: 1
  Renal corpuscle: Epidermal growth in Bowman's capsule: 1
  Renal corpuscle: Glomerular hypertrophy: 2
  Renal corpuscle: Glomerulosclerosis: 1
  Uriniferous tuble: Basophilic degeneration of tubules: 8
  Uriniferous tuble: Proliferation of proximal tubules: 8
  Uriniferous tuble: Proteinaceous urinary casts: 2
  Uriniferous tuble: Tubular dilation: 8
[4]; five weeks after the initial administration
  Progress of the glomerular conditions (renal tissue images, in words): markedly prevented
[5]; [10]
  Blood urea nitrogen: 45.5 ± 3.3 mg/dL
  Creatinine clearance: 156.9 ± 19.5 μl/min/100 gBW
  Urinary protein excretion: 276.5 ± 69.2 mg/24 hr/kgBW
  Urinary volume: 21.7 ± 3.1 ml/24 hr
[5]; [11]
  Blood urea nitrogen: 55.9 ± 3.7 mg/dL
  Creatinine clearance: 134.1 ± 11.0 μl/min/100 gBW
  Urinary protein excretion: 125.3 ± 20.8 mg/24 hr/kgBW
  Urinary volume: 20.1 ± 2.8 ml/24 hr
[5]; [12]
  Blood urea nitrogen: 45.1 ± 3.5 mg/dL
  Creatinine clearance: 143.5 ± 10.0 μl/min/100 gBW
  Urinary protein excretion: 197.1 ± 21.1 mg/24 hr/kgBW
  Urinary volume: 20.4 ± 1.7 ml/24 hr
[5]; [13]
  Blood urea nitrogen: 50.9 ± 3.6 mg/dL
  Creatinine clearance: 136.4 ± 9.9 μl/min/100 gBW
  Urinary protein excretion: 154.4 ± 53.0 mg/24 hr/kgBW
  Urinary volume: 20.4 ± 3.7 ml/24 hr
[5]; three weeks after the initial administration, same tendency five weeks after
  Effect on urinary protein level, creatinine clearance and BUN level (in words): significant prevention of increase in the urinary protein level and prevention of reduction in the creatinine clearance and increase in the BUN level
[2]; 300 μg/kg oral twice a day
  Urinary total protein excretion: 17 ± 7 mg/24 hr
[2]
  Increase in urinal total protein excretion (in words): markedly prevented
[3]; [14]
  BUN: 28 ± 3 mg/dL
  Blood creatinine: 0.61 ± 0.07 mg/dL
[3]; [15]
  BUN: 31 ± 2 mg/dL
  Blood creatinine: 0.48 ± 0.04 mg/dL
[3]; [16]
  BUN: 30 ± 3 mg/dL
  Blood creatinine: 0.62 ± 0.06 mg/dL
[3]; [17]
  BUN: 25 ± 1 mg/dL
  Blood creatinine: 0.49 ± 0.04 mg/dL
[3]; three weeks after the induction of glomerulonephritis
  Blood creatinine and BUN levels compared with the control group (in words): significantly decreased

## O=C([O-])CCCc1cccc2c1OC1CC(O)C(/C=C/C(O)c3ccccc3)C21.[Na+] (centres unmarked) [Compound 3]
[3]; [6]
  BUN: 28 ± 3 mg/dL
  Blood creatinine: 0.45 ± 0.05 mg/dL
[3]; [7]
  BUN: 30 ± 3 mg/dL
  Blood creatinine: 0.39 ± 0.04 mg/dL
